Test results: paper PMC9228567 (2022)

Test system: cy5-TTRS (WT Tte-PreQ1 riboswitch aptamer) (RNA, riboswitch) CUCACCUGGGUCGCAGUAACCCCAGUUAACAAAACAAGGGAGGUAAUUUU
Test: microscale thermophoresis
Details: 100 mM KCl, 1 mM MgCl2; 50 mM Tris pH 7.5, RT, DMSO; apparent, single-site fit

NCc1c[nH]c2nc(N)[nH]c(=O)c12
KD: 11.7 ± 0.35 nM
